Source: publication PMC7179259, “Safety, Tolerability, Pharmacokinetics, and Antimalarial Activity of the Novel Plasmodium Phosphatidylinositol 4-Kinase Inhibitor MMV390048 in Healthy Volunteers” (Antimicrobial Agents and Chemotherapy, 2020)

Tests used:
[1] = Stability in human plasma and whole blood (bioanalytical validation); format: in vitro ADME
Excerpt: page 28: Determination of MMV390048 from 50 µ L human plasma by LC -MS/MS A method was validated for the quantification of MMV390048 in human plasma, and consisted of a protein precipitation extraction, followed by high performance liquid chromatography with MS/MS detection. MMV390048- d3 was used as the internal standard. Analyte mean extraction yield was approximately 106.5 % (CV% = 6.2). The extraction procedure was followed by liquid chromatographic separation using a Waters Atlantis T3 3 μm, 100 x 2.1 mm analytical column. An isocratic mobile phase containing water:acetonitrile (25:75 [v/v]) was used at a flow-rate of 300 μL/min. The retention times for MMV390048 and MMV390048- d3 were 1.16 min and 1.16 min, respectively. An AB Sciex API 4000 mass spectrometer at unit resolution in the multiple reaction monitoring mode was used to monitor the transition of the protonated precursor ions, 394.145 m/z and 397.148 m/z, to the product ions, 297.0 m/z and 297.0 m/z, for MMV390048 and the internal standard, respectively. Electro -spray ionisation was used for ion production. Accuracy and precision were assessed over three consecutive, independent runs. The calibration curve fits a quadratic (weighted by 1/x) regressions for MMV390048 over the ranges 0.500 –2000 ng/mL, based on peak area ratios. The assay was successfully cross- validated on a second/back- up API 4000 instrument. […] Stock solutions of MMV390048 in dimethylsulfoxide was stable for 67 days when stored at -80°C and for 24 hours when stored at room temperature, 4°C and - 20°C. […] Samples with haemolysis greater than 1% were assayed in duplicate to confirm results.

healthy subjects = assay: Formulation optimization study: safety; format: in vivo, human; details: both tablet formulations
Procedure: The third study was a formulation optimization study to test two MMV390048 tablet formulations (tartaric acid and Syloid). The formulation optimization study was conducted at Richmond Pharmacology Ltd. (London, United Kingdom) from 17 September to 28 October 2015. This was a phase 1, open-label, single-dose, parallel-group, two-cohort design study.
(iii) Formulation optimization study. Subjects received one of two tablet formulations (formulation A, tartaric acid tablets; formulation B, Syloid tablets; manufactured by Quotient Clinical, United Kingdom) on day 1, after an ≥8-h fasting period, at a dose of 40 mg with 240 ml of water. Subjects were followed up until day 29.
(§1) Safety endpoints were the incidence, severity, and relationship to the investigational product (and inoculum for the IBSM study) of observed and self-reported adverse events (AEs), and changes from baseline in physical examination, vital signs, standard electrocardiograms (ECGs), continuous ECGs (first-in-human study only), and laboratory evaluation (hematology, coagulation parameters, hemolysis panel, clinical chemistry, and urinalysis) findings. […] AE severity was evaluated according to the Common Terminology Criteria for Adverse Events version 4.03 ([18]) and the World Health Organization recommendations for grading acute and subacute toxic effects ([19]).

P. falciparum = system: P. falciparum; parameters: method as in PMID 28446690; details: humanized SCID mice infected with P. falciparum; cited from earlier work
[2] = system: healthy subjects inoculated with blood-stage P. falciparum; assay: Induced blood-stage malaria (IBSM) study: safety; format: in vivo, human
Procedure: The second study was conducted at Q-Pharm (Brisbane, Australia) from 27 October 2014 to 19 December 2014. This was an IBSM, phase 1b, single-center, open-label study, in which a single dose of MMV390048 was administered to subjects previously inoculated with blood-stage P. falciparum. This study was planned to consist of two dose cohorts; however, a second cohort was not enrolled due to the high variability in pharmacokinetic profiles observed in the first cohort and in the first-in-human study (see Results). The IBSM study commenced when the first two dose cohorts of the first-in-human study had been completed. MMV390048 was administered in the first-in-human and IBSM studies in a powder-in-bottle formulation.
(ii) IBSM study. The dose of MMV390048 chosen (20 mg) was based on the pharmacokinetic, safety, and tolerability data available from the first-in-human study at the time the IBSM study commenced (when 5- and 20-mg-dose cohorts of the first-in-human study had been completed). This dose was below the estimated single dose required to achieve complete cure calculated from preclinical studies (80 to 100 mg) since recrudescence allows for characterization of the pharmacokinetic/pharmacodynamic relationship between MMV390048 and P. falciparum parasitemia. Subjects were inoculated intravenously on day 0 with erythrocytes infected with ∼1,800 viable chloroquine-sensitive P. falciparum 3D7 parasites ([17]). Fasted (≥8 h) subjects were dosed with MMV390048 when they reached the parasitemia threshold for treatment (∼1,000 parasites ml^−1) and were followed up until the end-of-study visit on day 28.
as §1

[3] = Stability of stock solutions in dimethylsulfoxide; format: physicochemical
Excerpt: page 28: Determination of MMV390048 from 50 µ L human plasma by LC -MS/MS A method was validated for the quantification of MMV390048 in human plasma, and consisted of a protein precipitation extraction, followed by high performance liquid chromatography with MS/MS detection. MMV390048- d3 was used as the internal standard. Analyte mean extraction yield was approximately 106.5 % (CV% = 6.2). The extraction procedure was followed by liquid chromatographic separation using a Waters Atlantis T3 3 μm, 100 x 2.1 mm analytical column. An isocratic mobile phase containing water:acetonitrile (25:75 [v/v]) was used at a flow-rate of 300 μL/min. The retention times for MMV390048 and MMV390048- d3 were 1.16 min and 1.16 min, respectively. An AB Sciex API 4000 mass spectrometer at unit resolution in the multiple reaction monitoring mode was used to monitor the transition of the protonated precursor ions, 394.145 m/z and 397.148 m/z, to the product ions, 297.0 m/z and 297.0 m/z, for MMV390048 and the internal standard, respectively. Electro -spray ionisation was used for ion production. Accuracy and precision were assessed over three consecutive, independent runs. The calibration curve fits a quadratic (weighted by 1/x) regressions for MMV390048 over the ranges 0.500 –2000 ng/mL, based on peak area ratios. The assay was successfully cross- validated on a second/back- up API 4000 instrument. […]

[4] = parameters: method as in PMID 28446690; details: predicted for humans; cited from earlier work

CS(=O)(=O)c1ccc(-c2cnc(N)c(-c3ccc(C(F)(F)F)nc3)c2)cc1 [MMV390048]
stable in human plasma when subjected to freeze-thaw cycles ([1]; freeze-thaw cycles): 3 | stable in whole blood for up to ([1]; on ice): 1 h | stable in human plasma for ([1]; room temperature): 6 h | stable in human plasma for up to ([1]; stored at approximately -80°C): 79 days | total AEs reported (healthy subjects; 18 subjects): 11 | subjects with AEs (healthy subjects; of 18 subjects): 7 | effective concentration to achieve 90% of the maximal kill rate (EC90) (P. falciparum): 0.16 µg/mL | AEs deemed related to malaria ([2]; 20 mg): 81.3% | No. (%) of subjects with adverse events: All AEs, Treatment related ([2]; 20 mg (n = 6)): 0 | No. (%) of subjects with adverse events: Grade 2 AEs ([2]; 20 mg (n = 6)): 3 (50) | No. (%) of subjects with adverse events: Grade 2 AEs, Treatment related ([2]; 20 mg (n = 6)): 0 | No. (%) of subjects with adverse events: Grade 3 AEs ([2]; 20 mg (n = 6)): 0 | No. (%) of subjects with adverse events: SAEs ([2]; 20 mg (n = 6)): 0 | No. of adverse events: All AEs ([2]; 20 mg (n = 6)): 32 | No. of adverse events: Grade 2 AEs ([2]; 20 mg (n = 6)): 9 | No. of adverse events: Grade 2 AEs, Treatment related ([2]; 20 mg (n = 6)): 0 | No. of adverse events: Grade 3 AEs ([2]; 20 mg (n = 6)): 0 | No. of adverse events: SAEs ([2]; 20 mg (n = 6)): 0 | AEs mild in severity ([2]; 20 mg, 23/32 AEs): 71.9% | headache (most common AE), cases ([2]; 20 mg, in 4 subjects): 7 | stock solution in dimethylsulfoxide stable for ([3]; room temperature, 4°C and -20°C): 24 h | stock solution in dimethylsulfoxide stable for ([3]; stored at -80°C): 1610 h | elimination half-life in humans predicted from preclinical studies [4]: 90 h
